{
  "source": "patent US6444676B1",
  "about": "“Use of PARP inhibitors in the treatment of glaucoma” (priority 1999, dated 2002)",
  "origin": "cited, not measured here",
  "key": {"neuronal apoptosis": {"system": "neuronal apoptosis", "conditions": "induced by various injuries including amino acid excitotoxicity"}, "rat retina": {"system": "rat retina", "conditions": "at 3 mM or higher concentrations, administered via intracameral infusion"}},
  "data": [
    {"smiles": "Oc1cccc2c(O)nccc12", "note": "[1,5-dihydroxyisoquinoline]", "values": [
      {"measurement": "prevention of neuronal apoptosis", "setting": "neuronal apoptosis", "value": "prevent neuronal apoptosis"}
    ]},
    {"smiles": "NC(=O)c1cccc(N)c1", "note": "[3-aminobenzamide]", "values": [
      {"measurement": "prevention of neuronal apoptosis", "setting": "neuronal apoptosis", "value": "prevent neuronal apoptosis"},
      {"measurement": "ischemia/reperfusion damage and DNA fragmentation in rat retina", "setting": "rat retina", "value": "reduce ischemia/reperfusion damage and DNA fragmentation"}
    ]},
    {"smiles": "Nc1cccc2c(=O)[nH][nH]c(=O)c12", "note": "[3-aminophtalhydrazide]", "values": [
      {"measurement": "prevention of neuronal apoptosis", "setting": "neuronal apoptosis", "value": "prevent neuronal apoptosis"}
    ]},
    {"smiles": "NC(=O)c1ccccc1", "note": "[benzamide]", "values": [
      {"measurement": "prevention of neuronal apoptosis", "setting": "neuronal apoptosis", "value": "prevent neuronal apoptosis"}
    ]}
  ]
}
